Experimental data reported in US11738082B2, “High concentration protein formulations with reduced viscosity” (Bhami's Research Laboratory, Pvt. Ltd., priority 2017, dated 2023).
Counter-ions that a name gives are not always drawn. Residues, ends and D or L forms follow the SMILES beside them.

Tested on: Human Gamma Globulin (HGG), GLOBUCEL®
Assay: Viscosity of aqueous solutions of Human Gamma Globulin (Cambridge VISCOlab5000 or DV2T cone and plate viscometer)
Conditions: for Viscosity, cP: excipient 10 mg/mL, 25° C.
[1] = HGG 220 mg/mL, histidine buffer pH 6.0
[2] = HGG 220 mg/mL, phosphate buffer pH 6.0

Procedure: Commercially obtained human gamma globulin (HGG), GLOBUCEL® (50 mg/mL) containing pharmaceutical excipients (Maltose) was dialyzed against water for 24 hr at 4° C. with three changes. To the aqueous solution of HGG, either histidine or phosphate or citrate buffer was added from the stock concentration of 1000 mM for histidine buffer or 1000 mM for citrate buffer or 1000 mM for phosphate buffer, pH 6.0 to get a final concentration of 25 mM each. The HGG solutions in various buffers were concentrated to a final volume of less than 150 μL using Vivaspin centrifugal concentrators (Sartorius). The collected protein sample was stored at 4° C. […] The protein concentrations were experimentally determined using the extinction coefficient of 1.4
[formula] at 280 nm. The viscosities of the solution were measured either using a Cambridge Viscometer, VISCOlab5000 using 70 μL of sample at 25° C. or using a DV2T cone and plate viscometer using 1.5 mL of sample at 25° C. at extrapolated zero shear rate.
Commercially obtained human gamma globulin (HGG), GLOBUCEL® (50 mg/mL) containing pharmaceutical excipients (Maltose) was dialyzed against water for 24 hr at 4° C. with three changes. To the aqueous solution of HGG, either citrate-phosphate buffer pH 5.0 or citrate-phosphate buffer pH 6.0 or citrate-phosphate buffer pH 7.0 was added from the stock concentration of 1000 mM for citrate buffer at pH 5.0 or pH 6.0 or pH 7.0 to get a final concentration of 25 mM each. The HGG solutions in various pH buffers were concentrated to a final volume of less than 150 μL using Vivaspin centrifugal concentrators (Sartorius). The collected protein sample was stored at 4° C. […] The protein concentrations were experimentally determined using the extinction coefficient of 1.4
Commercially obtained human gamma globulin (HGG), GLOBUCEL® (50 mg/mL) containing pharmaceutical excipients (Maltose) was dialyzed against water for 24 hr at 4° C. with three changes. To the aqueous solution of HGG, phosphate/citrate/histidine Buffer was added from the stock concentration of 1000 mM phosphate/citrate/histidine buffer, pH 6.0 to get a final concentration of 25 mM. To the buffered HGG different amino acid or its derivative was added individually and mixed until complete dissolution. The excipient containing HGG was concentrated to a final volume of less than 150 μL using Vivaspin centrifugal concentrators (Sartorius). The collected protein sample was stored at 4° C. […] The protein concentrations were experimentally determined using the extinction coefficient of 1.4
Commercially obtained human gamma globulin (HGG), GLOBUCEL® (50 mg/mL) containing pharmaceutical excipients (Maltose) was dialyzed against water for 24 hr at 4° C. with three changes. To the aqueous solution of HGG, phosphate/citrate/histidine Buffer was added from the stock concentration of 1000 mM phosphate/citrate/histidine buffer, pH 6.0 to get a final concentration of 25 mM. To the buffered HGG, different nucleosides or nucleotides or its derivative was added individually and mixed until complete dissolution. The excipient containing HGG was concentrated to a final volume of less than 150 μL using Vivaspin centrifugal concentrators (Sartorius). The collected protein sample was stored at 4° C.

## NCCCC[C@H](N)C(=O)O [Lysine]
HGG 267 mg/mL, excipient 10 mg/mL (55 mM), 25 mM phosphate buffer pH 6.0
  Viscosity (cP) @ 25° C.: 199 cP

## CCO [Ethanol]
HGG 182 mg/mL, excipient 5%, 25 mM phosphate buffer pH 6.0
  Viscosity (cP) @ 25° C.: 53 cP
HGG […], excipient 5%, 25 mM citrate buffer pH 6.0
  Viscosity (cP) @ 25° C.: 5 cP

## NC(=O)c1cccnc1 [Nicotinamide]
HGG 105 mg/mL, excipient 10 mg/mL (82 mM), 25 mM histidine buffer pH 6.0
  Viscosity (cP) @ 25° C.: 26 cP
HGG 191 mg/mL, excipient 10 mg/mL (82 mM), 25 mM phosphate buffer pH 6.0
  Viscosity (cP) @ 25° C.: 21 cP
HGG 219 mg/mL, excipient 10 mg/mL (82 mM), 25 mM citrate buffer pH 6.0
  Viscosity (cP) @ 25° C.: 72 cP
HGG 220 mg/mL, citrate buffer pH 6.0
  Viscosity, cP: 72 cP
[1]
  Viscosity, cP: 43 cP
[2]
  Viscosity, cP: 49 cP
HGG 224 mg/mL, excipient 10 mg/mL (82 mM), 25 mM histidine buffer pH 6.0
  Viscosity (cP) @ 25° C.: 43 cP
HGG 250 mg/mL, excipient 10 mg/mL (82 mM), 25 mM phosphate buffer pH 6.0
  Viscosity (cP) @ 25° C.: 76 cP

## O=C(CO)[C@@H](O)[C@H](O)[C@H](O)CO [Fructose]
HGG […], excipient 10 mg/mL (56 mM), 25 mM citrate buffer pH 6.0
  Viscosity (cP) @ 25° C.: 69 cP

## Nc1ccn([C@@H]2O[C@H](CO)[C@@H](O)[C@H]2O)c(=O)n1 [Cytidine]
HGG 218 mg/mL, excipient 10 mg/mL (41 mM), 25 mM phosphate buffer pH 6.0
  Viscosity (cP) @ 25° C.: 203 cP

## NCC(=O)O [Glycine]
HGG 206 mg/mL, excipient 10 mg/mL ([…]), 25 mM phosphate buffer pH 6.0
  Viscosity (cP) @ 25° C.: 63 cP
HGG 208 mg/mL, excipient 10 mg/mL ([…]), 25 mM citrate buffer pH 6.0
  Viscosity (cP) @ 25° C.: 73 cP
HGG 228 mg/mL, excipient 10 mg/mL ([…]), 25 mM phosphate buffer pH 6.0
  Viscosity (cP) @ 25° C.: 186 cP

## OC[C@@H](O)[C@@H](O)[C@H](O)[C@H](O)CO [Mannitol]
HGG […], excipient 10 mg/mL (55 mM), 25 mM citrate buffer pH 6.0
  Viscosity (cP) @ 25° C.: 65 cP

## O=c1cc[nH]c(=O)[nH]1 [Uracil]
HGG 235 mg/mL, excipient 1 mg/mL (9 mM), 25 mM phosphate buffer pH 6.0
  Viscosity (cP) @ 25° C.: 140 cP

## Cc1ncc(C[n+]2csc(CCO)c2C)c(N)n1 [Thiamine-HCl]
HGG 179 mg/mL, excipient 10 mg/mL (30 mM), 25 mM phosphate buffer pH 6.0
  Viscosity (cP) @ 25° C.: 24 cP
HGG 200 mg/mL, excipient 10 mg/mL (30 mM), 25 mM histidine buffer pH 6.0
  Viscosity (cP) @ 25° C.: 29 cP
HGG 200 mg/mL, excipient 27.3 mg/mL (81 mM), 25 mM phosphate buffer pH 6.0
  Viscosity (cP) @ 25° C.: 34 cP
[1]
  Viscosity, cP: 95 cP
[2]
  Viscosity, cP: 65 cP
HGG 246 mg/mL, excipient 27.3 mg/mL (81 mM), 25 mM phosphate buffer pH 6.0
  Viscosity (cP) @ 25° C.: 91 cP
HGG 248 mg/mL, excipient 10 mg/mL (30 mM), 25 mM phosphate buffer pH 6.0
  Viscosity (cP) @ 25° C.: 92 cP
HGG 294 mg/mL, excipient 10 mg/mL (30 mM), 25 mM citrate buffer pH 6.0
  Viscosity (cP) @ 25° C.: 185 cP

## N[C@@H](CO)C(=O)O [Serine]
HGG 238 mg/mL, excipient 10 mg/mL (95 mM), 25 mM phosphate buffer pH 6.0
  Viscosity (cP) @ 25° C.: 135 cP

## Cc1cn([C@H]2C[C@H](O)[C@@H](CO)O2)c(=O)[nH]c1=O [Thymidine]
HGG 161 mg/mL, excipient 10 mg/mL (41 mM), 25 mM phosphate buffer pH 6.0
  Viscosity (cP) @ 25° C.: 60 cP

## N=C(N)NCCC[C@H](N)C(=O)O [Arginine]
HGG 205 mg/mL, excipient 10 mg/mL (58 mM), 25 mM phosphate buffer pH 6.0
  Viscosity (cP) @ 25° C.: 85 cP
HGG 220 mg/mL, excipient 10 mg/mL (58 mM), 25 mM phosphate buffer pH 6.0
  Viscosity (cP) @ 25° C.: 197 cP
HGG 247 mg/mL, excipient 10 mg/mL (58 mM), 25 mM citrate buffer pH 6.0
  Viscosity (cP) @ 25° C.: 87 cP

## Cl.N [Ammonium chloride]
HGG 182 mg/mL, excipient 5.35 mg/mL (100 mM), 25 mM phosphate buffer pH 6.0
  Viscosity (cP) @ 25° C.: 53 cP
HGG 205 mg/mL, excipient 40 mg/mL (747 mM), 25 mM phosphate buffer pH 6.0
  Viscosity (cP) @ 25° C.: 21 cP

## Polysorbate 80
HGG 228 mg/mL, excipient 0.07%, 25 mM citrate buffer pH 6.0
  Viscosity (cP) @ 25° C.: 78 cP
HGG 241 mg/mL, excipient 0.07%, 25 mM phosphate buffer pH 6.0
  Viscosity (cP) @ 25° C.: 84 cP

## OC[C@H]1O[C@@](CO)(O[C@H]2O[C@H](CO)[C@@H](O)[C@H](O)[C@H]2O)[C@@H](O)[C@@H]1O [Sucrose]
HGG 192 mg/mL, excipient 20 mg/mL (58 mM), 25 mM citrate buffer pH 6.0
  Viscosity (cP) @ 25° C.: 76 cP
HGG 204 mg/mL, excipient 20 mg/mL (58 mM), 25 mM phosphate buffer pH 6.0
  Viscosity (cP) @ 25° C.: 190 cP

## Nc1ncccn1 [2-Aminopyrimidine]
HGG 120 mg/mL, excipient 10 mg/mL (105 mM), 25 mM phosphate buffer pH 6.0
  Viscosity (cP) @ 25° C.: 87 cP

## OC[C@H]1O[C@H](O[C@H]2O[C@H](CO)[C@@H](O)[C@H](O)[C@H]2O)[C@H](O)[C@@H](O)[C@@H]1O [Trehalose dihydrate]
HGG 217 mg/mL, excipient 20 mg/mL (53 mM), 25 mM citrate buffer pH 6.0
  Viscosity (cP) @ 25° C.: 87 cP
HGG 246 mg/mL, excipient 20 mg/mL (53 mM), 25 mM phosphate buffer pH 6.0
  Viscosity (cP) @ 25° C.: 54 cP

## O=C[C@@H](O)[C@H](O)[C@H](O)CO [Arabinose]
HGG 186 mg/mL, excipient 10 mg/mL (67 mM), 25 mM citrate buffer pH 6.0
  Viscosity (cP) @ 25° C.: 65 cP

## COC(=O)c1cccnc1 [Methylnicotinate]
HGG 216 mg/mL, excipient 10 mg/mL (73 mM), 25 mM phosphate buffer pH 6.0
  Viscosity (cP) @ 25° C.: 84 cP

## O=c1ccn([C@@H]2O[C@H](CO)[C@@H](O)[C@H]2O)c(=O)[nH]1 [Uridine]
HGG 203 mg/mL, excipient 10 mg/mL (41 mM), 25 mM phosphate buffer pH 6.0
  Viscosity (cP) @ 25° C.: 28 cP

## CC(=O)C(=O)[O-].[Na+] [Pyruvate sodium salt]
HGG 213 mg/mL, excipient 10 mg/mL (91 mM), 25 mM phosphate buffer pH 6.0
  Viscosity (cP) @ 25° C.: 171 cP

## N[C@@H](Cc1c[nH]cn1)C(=O)O [Histidine]
HGG 180 mg/mL, excipient 10 mg/mL (65 mM), 25 mM phosphate buffer pH 6.0
  Viscosity (cP) @ 25° C.: 31 cP

## N=C(N)NCCCC[C@H](N)C(=O)O [Homoarginine]
HGG 188 mg/mL, excipient 10 mg/mL (45 mM), 25 mM phosphate buffer pH 6.0
  Viscosity (cP) @ 25° C.: 28 cP

## O=C(O)[C@@H]1CCCN1 [Proline]
HGG […], excipient 10 mg/mL (87 mM), 25 mM citrate buffer pH 6.0
  Viscosity (cP) @ 25° C.: 55 cP
HGG […], excipient 10 mg/mL (87 mM), 25 mM phosphate buffer pH 6.0
  Viscosity (cP) @ 25° C.: 68 cP

## CC(=O)[O-].[Na+] [Sodium Acetate]
HGG 174 mg/mL, excipient […] (100 mM), 25 mM phosphate buffer pH 6.0
  Viscosity (cP) @ 25° C.: 19 cP

## O=C1O[C@H]([C@@H](O)CO)C(O)=C1O [L-Ascorbic acid]
HGG 214 mg/mL, excipient 10 mg/mL (57 mM), 25 mM phosphate buffer pH 6.0
  Viscosity (cP) @ 25° C.: 59 cP

## CSCC[C@H](N)C(=O)O [Methionine]
HGG 228 mg/mL, excipient 10 mg/mL (67 mM), 25 mM phosphate buffer pH 6.0
  Viscosity (cP) @ 25° C.: 170 cP

## COC(=O)[C@H](Cc1ccccc1)NC(=O)[C@@H](N)CC(=O)O [Aspartame] (H-Asp-Phe-OMe)
HGG 140 mg/mL, excipient 10 mg/mL (34 mM), 25 mM citrate buffer pH 6.0
  Viscosity (cP) @ 25° C.: 51 cP
HGG 218 mg/mL, excipient 10 mg/mL (34 mM), 25 mM phosphate buffer pH 6.0
  Viscosity (cP) @ 25° C.: 143 cP

## L-Pantothenic Acid hemicalcium salt
HGG 182 mg/mL, excipient 10 mg/mL (42 mM), 25 mM phosphate buffer pH 6.0
  Viscosity (cP) @ 25° C.: 14 cP

## CC(=O)Oc1ccccc1C(=O)O [Acetyl salicylic acid, reference compound]
HGG 283 mg/mL, excipient 2.5 mg/mL (14 mM), 25 mM histidine buffer pH 6.0
  Viscosity (cP) @ 25° C.: 43 cP

## Cl.NCCc1ccc(O)cc1 [Tyramine-HCl]
HGG 215 mg/mL, excipient 10 mg/mL (58 mM), 25 mM phosphate buffer pH 6.0
  Viscosity (cP) @ 25° C.: 145 cP
